Like-named read-outs stand apart in the source and are kept apart here.

What all share (assay): biochemical
Common to all, as to design: KINOMEscan active site-directed competition binding assay (DiscoveRx), 456 kinases, per cent of control at 300 nM
Details in all cases: read-out: Percent of Control (%)

One assay has as its target T1, ASK2 (Homo sapiens, UniProt O95382).
T1 construct: gene MAP3K6
The procedure, abridged: (§1)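 Binding was measured with an active site-directed competition binding assay that quantifies compound–kinase interactions. Test compounds were screened at 300 nmol/L across a 456-kinase panel.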

Another assay has as its target DAPK3 (Homo sapiens, UniProt O43293). The procedure, abridged: as §1
The next assay concerns the target T2, DMPK2 (Homo sapiens, UniProt Q6DT37).
T2 construct: gene CDC42BPG
The procedure, abridged:
as §1

In the next assay the target is EGFR(L747-T751del,Sins) (Homo sapiens, UniProt P00533, DEL747-750/T751S). The procedure, abridged: as §1
The target of the next assay is FLT3(R834Q) (Homo sapiens, UniProt P36888, R834Q). The procedure, abridged: as §1
A further assay addresses T3, IKK-alpha (Homo sapiens, UniProt O15111).
T3 construct: gene CHUK
The procedure, abridged:
as §1

A further assay has as its target LRRK2 (Homo sapiens, UniProt Q5S007). The procedure, abridged: as §1
The target of a further assay is LRRK2(G2019S) (Homo sapiens, UniProt Q5S007, G2019S). Put shortly: as §1
The next assay has as its target MAP3K2 (Homo sapiens, UniProt Q9Y2U5). Put shortly: as §1
Another assay has as its target MKNK1 (Homo sapiens, UniProt Q9BUB5). The procedure, abridged: as §1
Another assay has as its target MYO3B (Homo sapiens, UniProt Q8WXR4). The procedure, abridged:
as §1

In another assay the target is PIM3 (Homo sapiens, UniProt Q86V86). The procedure, abridged: as §1
A further assay addresses PKMYT1 (Homo sapiens, UniProt Q99640). The procedure, abridged: as §1
A further assay has as its target ROS1 (Homo sapiens, UniProt P08922). Put shortly: as §1
The next assay deals with SRPK2 (Homo sapiens, UniProt P78362). Put shortly: as §1
The target in a further assay is TAOK1 (Homo sapiens, UniProt Q7L7X3). Put shortly:
as §1

The next assay has as its target T4, TIE2 (Homo sapiens, UniProt Q02763).
T4 construct: gene TEK
Put shortly:
as §1

The target of another assay is TLK1 (Homo sapiens, UniProt Q9UKI8). The procedure, abridged: as §1
In a further assay the target is TLK2 (Homo sapiens, UniProt Q86UE8). Put shortly:
as §1

A further assay has as its target TTK (Homo sapiens, UniProt P33981). The procedure, abridged: as §1
A further assay deals with ULK2 (Homo sapiens, UniProt Q8IYT8). Put shortly: as §1
A further assay addresses T5, YSK4 (Homo sapiens, UniProt Q56UN5).
T5 construct: gene MAP3K19
The procedure, abridged:
as §1

Sequence of MKNK1 (Q9BUB5 whole entry): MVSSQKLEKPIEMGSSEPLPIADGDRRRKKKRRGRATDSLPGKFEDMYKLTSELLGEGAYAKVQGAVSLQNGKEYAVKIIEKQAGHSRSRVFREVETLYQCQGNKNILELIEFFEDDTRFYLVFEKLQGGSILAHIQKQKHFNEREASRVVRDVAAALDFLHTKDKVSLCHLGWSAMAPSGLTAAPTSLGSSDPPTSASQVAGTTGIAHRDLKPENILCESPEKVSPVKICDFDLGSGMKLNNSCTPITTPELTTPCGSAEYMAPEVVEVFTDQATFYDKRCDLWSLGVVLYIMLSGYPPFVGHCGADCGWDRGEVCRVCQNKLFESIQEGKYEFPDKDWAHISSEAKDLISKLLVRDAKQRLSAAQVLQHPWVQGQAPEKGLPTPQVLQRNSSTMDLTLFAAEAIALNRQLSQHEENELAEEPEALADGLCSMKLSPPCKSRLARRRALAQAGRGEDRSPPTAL
Sequence of PKMYT1 (Q99640 whole entry): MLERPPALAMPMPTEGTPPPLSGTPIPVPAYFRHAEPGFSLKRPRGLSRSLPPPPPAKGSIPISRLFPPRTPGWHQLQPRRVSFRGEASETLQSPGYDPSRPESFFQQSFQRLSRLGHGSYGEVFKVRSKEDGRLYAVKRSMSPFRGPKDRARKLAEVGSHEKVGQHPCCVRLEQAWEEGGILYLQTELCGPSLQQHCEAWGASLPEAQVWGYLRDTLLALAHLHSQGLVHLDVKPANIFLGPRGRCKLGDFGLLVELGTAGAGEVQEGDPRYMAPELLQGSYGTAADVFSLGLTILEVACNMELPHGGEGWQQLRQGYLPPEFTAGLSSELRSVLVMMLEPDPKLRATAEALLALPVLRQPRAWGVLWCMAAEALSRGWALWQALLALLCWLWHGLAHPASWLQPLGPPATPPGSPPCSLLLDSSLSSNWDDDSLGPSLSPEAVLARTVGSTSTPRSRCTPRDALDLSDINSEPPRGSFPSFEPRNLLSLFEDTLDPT
Sequence of ROS1 (P08922 whole entry): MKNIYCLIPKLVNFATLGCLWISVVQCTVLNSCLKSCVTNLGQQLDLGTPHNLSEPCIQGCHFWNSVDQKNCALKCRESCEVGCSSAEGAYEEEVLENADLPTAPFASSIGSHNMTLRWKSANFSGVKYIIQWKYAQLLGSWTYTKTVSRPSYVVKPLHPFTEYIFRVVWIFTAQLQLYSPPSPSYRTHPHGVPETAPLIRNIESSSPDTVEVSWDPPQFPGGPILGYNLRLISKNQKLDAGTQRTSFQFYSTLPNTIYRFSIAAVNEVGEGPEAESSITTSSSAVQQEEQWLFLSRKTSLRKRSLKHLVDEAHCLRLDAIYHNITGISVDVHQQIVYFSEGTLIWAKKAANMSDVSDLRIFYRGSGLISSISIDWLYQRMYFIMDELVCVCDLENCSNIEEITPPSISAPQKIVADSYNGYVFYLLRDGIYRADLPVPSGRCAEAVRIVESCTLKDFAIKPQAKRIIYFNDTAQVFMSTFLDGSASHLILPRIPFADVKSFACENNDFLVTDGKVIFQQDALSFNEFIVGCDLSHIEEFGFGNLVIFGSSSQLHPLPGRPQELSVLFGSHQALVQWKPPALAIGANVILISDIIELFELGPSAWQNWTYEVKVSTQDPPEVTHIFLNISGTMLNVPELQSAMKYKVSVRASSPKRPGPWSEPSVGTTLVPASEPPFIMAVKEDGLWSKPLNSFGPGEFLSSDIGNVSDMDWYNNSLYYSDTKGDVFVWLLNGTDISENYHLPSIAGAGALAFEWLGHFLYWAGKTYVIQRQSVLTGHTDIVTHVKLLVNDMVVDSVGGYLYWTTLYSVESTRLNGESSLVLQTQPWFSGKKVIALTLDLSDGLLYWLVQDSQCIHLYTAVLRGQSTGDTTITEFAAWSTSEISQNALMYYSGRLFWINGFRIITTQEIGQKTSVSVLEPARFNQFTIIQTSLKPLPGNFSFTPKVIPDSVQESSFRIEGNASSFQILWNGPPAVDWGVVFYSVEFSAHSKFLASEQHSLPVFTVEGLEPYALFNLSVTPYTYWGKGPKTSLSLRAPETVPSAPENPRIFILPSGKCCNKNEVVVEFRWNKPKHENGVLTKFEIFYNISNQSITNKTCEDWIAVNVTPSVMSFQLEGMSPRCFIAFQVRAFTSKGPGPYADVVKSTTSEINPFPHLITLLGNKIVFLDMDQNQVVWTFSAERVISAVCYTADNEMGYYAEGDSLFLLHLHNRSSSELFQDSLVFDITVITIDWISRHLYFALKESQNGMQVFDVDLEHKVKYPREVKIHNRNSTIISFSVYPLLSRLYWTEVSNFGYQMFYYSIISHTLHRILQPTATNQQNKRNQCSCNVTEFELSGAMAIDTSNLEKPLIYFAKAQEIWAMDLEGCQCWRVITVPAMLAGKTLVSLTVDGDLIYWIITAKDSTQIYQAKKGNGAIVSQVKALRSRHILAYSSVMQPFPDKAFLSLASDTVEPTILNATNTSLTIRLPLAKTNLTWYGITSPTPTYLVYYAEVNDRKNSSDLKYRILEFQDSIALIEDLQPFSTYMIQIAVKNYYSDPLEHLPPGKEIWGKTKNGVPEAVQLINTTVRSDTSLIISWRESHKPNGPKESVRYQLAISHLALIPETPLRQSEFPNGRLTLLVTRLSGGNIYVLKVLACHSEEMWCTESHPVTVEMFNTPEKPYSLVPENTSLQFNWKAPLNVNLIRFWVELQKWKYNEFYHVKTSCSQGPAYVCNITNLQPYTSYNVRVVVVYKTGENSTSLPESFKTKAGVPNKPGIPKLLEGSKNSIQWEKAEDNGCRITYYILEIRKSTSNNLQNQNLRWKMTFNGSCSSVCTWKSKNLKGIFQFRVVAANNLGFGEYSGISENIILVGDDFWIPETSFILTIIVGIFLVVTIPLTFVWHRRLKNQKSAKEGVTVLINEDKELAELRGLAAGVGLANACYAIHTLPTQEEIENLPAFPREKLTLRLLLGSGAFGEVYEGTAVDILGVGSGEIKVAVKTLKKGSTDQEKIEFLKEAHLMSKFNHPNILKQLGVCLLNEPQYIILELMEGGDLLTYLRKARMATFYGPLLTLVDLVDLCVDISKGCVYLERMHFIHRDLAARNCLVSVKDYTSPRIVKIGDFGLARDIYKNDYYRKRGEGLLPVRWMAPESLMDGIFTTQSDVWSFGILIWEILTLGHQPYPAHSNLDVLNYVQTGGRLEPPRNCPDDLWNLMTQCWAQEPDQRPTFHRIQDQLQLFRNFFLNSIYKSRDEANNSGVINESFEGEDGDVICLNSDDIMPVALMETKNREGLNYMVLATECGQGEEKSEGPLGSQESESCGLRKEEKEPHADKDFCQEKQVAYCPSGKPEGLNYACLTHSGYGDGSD
T5 sequence (Q56UN5 whole entry): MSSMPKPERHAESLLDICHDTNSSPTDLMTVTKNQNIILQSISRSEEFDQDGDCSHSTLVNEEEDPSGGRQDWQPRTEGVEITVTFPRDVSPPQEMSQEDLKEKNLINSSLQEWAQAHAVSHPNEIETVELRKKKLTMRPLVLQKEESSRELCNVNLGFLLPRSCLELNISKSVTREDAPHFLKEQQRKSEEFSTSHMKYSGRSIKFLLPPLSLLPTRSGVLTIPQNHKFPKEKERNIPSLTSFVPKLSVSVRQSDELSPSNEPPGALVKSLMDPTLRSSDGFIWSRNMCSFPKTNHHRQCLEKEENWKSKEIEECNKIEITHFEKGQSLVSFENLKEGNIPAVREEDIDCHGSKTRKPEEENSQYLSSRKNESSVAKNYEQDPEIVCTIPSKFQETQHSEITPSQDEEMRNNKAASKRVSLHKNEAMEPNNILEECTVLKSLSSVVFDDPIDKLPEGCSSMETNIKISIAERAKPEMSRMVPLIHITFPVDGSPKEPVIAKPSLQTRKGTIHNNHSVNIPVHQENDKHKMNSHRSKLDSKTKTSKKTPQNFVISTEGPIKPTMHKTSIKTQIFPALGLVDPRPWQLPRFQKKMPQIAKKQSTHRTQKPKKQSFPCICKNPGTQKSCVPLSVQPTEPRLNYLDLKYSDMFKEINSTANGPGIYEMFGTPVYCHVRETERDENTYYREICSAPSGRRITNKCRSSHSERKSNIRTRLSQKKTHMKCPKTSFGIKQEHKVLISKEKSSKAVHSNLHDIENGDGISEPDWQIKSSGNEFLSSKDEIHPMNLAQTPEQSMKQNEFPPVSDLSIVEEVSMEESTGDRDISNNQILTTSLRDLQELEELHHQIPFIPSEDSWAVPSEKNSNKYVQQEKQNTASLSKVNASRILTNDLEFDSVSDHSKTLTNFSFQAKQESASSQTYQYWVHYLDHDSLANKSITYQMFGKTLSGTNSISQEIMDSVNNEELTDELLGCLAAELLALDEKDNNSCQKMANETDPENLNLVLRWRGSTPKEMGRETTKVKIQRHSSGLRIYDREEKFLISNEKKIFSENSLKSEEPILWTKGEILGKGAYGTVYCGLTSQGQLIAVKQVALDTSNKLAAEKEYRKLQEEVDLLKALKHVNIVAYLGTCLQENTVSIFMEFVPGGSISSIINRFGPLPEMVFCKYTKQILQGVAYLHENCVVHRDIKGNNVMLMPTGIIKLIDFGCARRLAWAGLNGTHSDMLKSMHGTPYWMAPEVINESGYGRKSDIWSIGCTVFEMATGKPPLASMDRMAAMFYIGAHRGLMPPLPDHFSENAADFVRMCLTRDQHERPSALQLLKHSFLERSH

With `O=C(/C=C/c1cnccc1-c1ccc(F)cc1)Nc1ccc(CCc2nnco2)cc1` [T-418, (2E)-3-(4-(4-fluorophenyl)pyridin-3-yl)-N-(4-(2-(1,3,4-oxadiazol-2-yl)ethyl)phenyl)acrylamide], the remaining binding at 0.3 µM at ASK2 (sheet T-418) worked out at 94%; on DAPK3 (sheet T-418), 83%; at DMPK2 (sheet T-418), 71%; on EGFR(L747-T751del,Sins) (sheet T-418), 100%; at FLT3(R834Q) (sheet T-418), 88%; at IKK-alpha (sheet T-418), 100%. Moreover, the remaining binding at 0.3 µM at LRRK2 (sheet T-418) came out at 94%; on LRRK2(G2019S) (sheet T-418), 84%; on MAP3K2 (sheet T-418), 100%; at MKNK1 (sheet T-418), 44%; at MYO3B (sheet T-418), 52%; at PIM3 (sheet T-418) it was 76%. For the same molecule, the remaining binding at 0.3 µM on PKMYT1 (sheet T-418) came out at 73%; at ROS1 (sheet T-418), 100%; at SRPK2 (sheet T-418), 50%; on TAOK1 (sheet T-418), 100%; at TIE2 (sheet T-418), 85%; at TLK1 (sheet T-418), 100%. Further, the remaining binding at 0.3 µM on TLK2 (sheet T-418) stood at 100%; at TTK (sheet T-418), 90%; on ULK2 (sheet T-418), 100%; on YSK4 (sheet T-418) it was 100%.
On to `Cc1ncccc1Oc1sc(C(N)=O)c2c1-c1c(cnn1C)CC2` [T-474, 1-methyl-8-((2-methylpyridin-3-yl)oxy)-4,5-dihydro-1H-thieno[3,4-g]indazole-6-carboxamide], for which the remaining binding at 0.3 µM at ASK2 was 100%; at DAPK3, 100%; at DMPK2, 87%; on EGFR(L747-T751del,Sins), 87%; at FLT3(R834Q) it was 91%; on IKK-alpha, 100%. For the same molecule, the remaining binding at 0.3 µM on LRRK2 was determined as 95%; on LRRK2(G2019S), 88%; at MAP3K2 it was 100%; at MKNK1, 50%; at MYO3B it was 84%; on PIM3, 82%. The remaining binding at 0.3 µM at PKMYT1 was determined as 71%; on ROS1, 100%; at SRPK2, 100%; on TAOK1, 95%; at TIE2, 99%; on TLK1 it was 100%. Besides, the remaining binding at 0.3 µM on TLK2 was 100%; at TTK, 97%; on ULK2, 100%; at YSK4, 100%.

For the origin of these results see paper PMC5862592, “CDK8/19 inhibition induces premature G1/S transition and ATR-dependent cell death in prostate cancer cells” (Oncotarget, 2018).
